pIC50, pKi: −log10 of the molar value. Where two headings read alike, the source gives them in different places. Where a SMILES comes first, the peptide text is derived from it. [ ]: non-standard residue; d: D form. The star is where a group is joined. 4Abz = Nc1ccc(C(=O)O)cc1; Bz = O=C(c1ccccc1)*
Columns and labels:
[1] = target: T1, Caspase-1 (Homo sapiens, UniProt P29466); test: Caspase-1 enzyme inhibition (Ki); assay type: biochemical
T1 sequence (P29466 120-297 limits assumed): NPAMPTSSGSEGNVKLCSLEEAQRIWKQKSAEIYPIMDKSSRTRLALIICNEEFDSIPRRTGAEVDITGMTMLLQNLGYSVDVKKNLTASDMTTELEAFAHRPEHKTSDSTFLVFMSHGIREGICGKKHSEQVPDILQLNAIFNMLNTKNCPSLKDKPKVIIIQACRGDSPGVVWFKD
T1 sequence (P29466 317-404 limits assumed): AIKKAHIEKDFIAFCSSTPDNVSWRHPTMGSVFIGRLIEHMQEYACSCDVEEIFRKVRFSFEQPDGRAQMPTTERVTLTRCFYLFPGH
Procedure, shortened: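 Ki obtained by fitting rate versus inhibitor concentration to the Morrison tight-binding equation for competitive inhibitors, with pNA release read at 405 nm at 37 °C. Substrate Suc-YVAD-pNA (80 μM final) added after 15 min enzyme–inhibitor preincubation in Tris pH 7.5 buffer with DTT and CHAPS.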

[2] = system: Human Peripheral Blood Mononuclear Cells (PBMC), mature IL-1β; test: PBMC cell assay: IL-1β assay with human peripheral blood mononuclear cells; assay type: cell-based; conditions: LPS-stimulated human PBMC, mature IL-1β in supernatant by ELISA
From the text: IL-1β Assay with a Mixed Population of Human Peripheral Blood Mononuclear Cells (PBMC) or Enriched Adherent Mononuclear Cells
Processing of pre-IL-1β by ICE can be measured in cell culture using a variety of cell sources. Human PBMC obtained from healthy donors provides a mixed population of lymphocyte subtypes and mononuclear cells that produce a spectrum of interleukins and cytokines in response to many classes of physiological stimulators. Adherent mononuclear cells from PBMC provides an enriched source of normal monocytes for selective studies of cytokine production by activated cells.
An initial dilution series of test compound in DMSO or ethanol is prepared, with a subsequent dilution into RPMI-10% FBS media (containing 2 mM L-glutamine, 10 mM HEPES, 50 U and 50 ug/ml pen/strep) respectively to yield drugs at 4× the final test concentration containing 0.4% DMSO or 0.4% ethanol. The final concentration of DMSO is 0.1% for all drug dilutions. A concentration titration which brackets the apparent Ki for a test compound determined in an ICE inhibition assay is generally used for the primary compound screen.
Generally 5-6 compound dilutions are tested and the cellular component of the assay is performed in duplicate, with duplicate ELISA determinations on each cell culture supernatant.
Buffy coat cells isolated from one pint human blood (yielding 40-45 ml final volume plasma plus cells) are diluted with media to 80 ml and LeukoPREP separation tubes (Becton Dickinson) are each overlaid with 10 ml of cell suspension. After 15 min centrifugation at 1500-1800×g, the plasma/media layer is aspirated and then the mononuclear cell layer is collected with a Pasteur pipette and transferred to a 15 ml conical centrifuge tube (Corning). Media is added to bring the volume to 15 ml, gently mix the cells by inversion and centrifuge at 300×g for 15 min. The PBMC pellet is resuspended in a small volume of media, the cells are counted and adjusted to 6×10^6 cells/ml.
For the cellular assay, 1.0 ml of the cell suspension is added to each well of a 24-well flat bottom tissue culture plate (Corning), 0.5 ml test compound dilution and 0.5 ml LPS solution (Sigma #L-3012; 20 ng/ml solution prepared in complete RPMI media; final LPS concentration 5 ng/ml). The 0.5 ml additions of test compound and LPS are usually sufficient to mix the contents of the wells. Three control mixtures are run per experiment, with either LPS alone, solvent vehicle control, and/or additional media to adjust the final culture volume to 2.0 ml. The cell cultures are incubated for 16-18 hr at 37° C. in the presence of 5% CO2.
At the end of the incubation period, cells are harvested and transferred to 15 ml conical centrifuge tubes. After centrifugation for 10 min at 200×g, supernatants are harvested and transferred to 1.5 ml Eppendorf tubes. It may be noted that the cell pellet may be utilized for a biochemical evaluation of pre-IL-1β and/or mature IL-1β content in cytosol extracts by Western blotting or ELISA with pre-IL-1β specific antisera.
PBMC are isolated and prepared as described above. Media (1.0 ml) is first added to wells followed by 0.5 ml of the PBMC suspension. After a one hour incubation, plates are gently shaken and nonadherent cells aspirated from each well. Wells are then gently washed three times with 1.0 ml of media and final resuspended in 1.0 ml media. The enrichment for adherent cells generally yields 2.5-3.0×10^5 cells per well. The addition of test compounds, LPS, cell incubation conditions and processing of supernatants proceeds as described above.
Quantikine kits (R&D Systems) may be used for the measurement of mature IL-1β. Assays are performed according to the manufacturer's directions. Mature IL-1β levels of about 1-3 ng/ml in both PBMC and adherent mononuclear cell positive controls are observed. […]

[3] = system: Human whole blood, IL-1β production; test: Whole blood assay for IL-1β production; assay type: cell-based; conditions: LPS-stimulated whole blood, IL-1β by ELISA
Procedure: The whole blood assay is a simple method for measuring the production of IL-1β (or other cytokines) and the activity of potential inhibitors. The complexity of this assay system, with its full complement of lymphoid and inflammatory cell types, spectrum of plasma proteins and red blood cells is an ideal in vitro representation of human in vivo physiologic conditions.
Set incubator or water bath at 30° C. Aliquot 0.25 ml of blood into 1.5 ml eppendorf tubes. Note: be sure to invert the whole blood sample tubes after every two aliquots. Differences in replicates may result if the cells sediment and are not uniformly suspended. Use of a positive displacement pipette will also minimize differences between replicate aliquots.
Prepare drug dilutions in sterile pyrogen-free saline by serial dilution. A dilution series which brackets the apparent Ki for a test compound determined in an ICE inhibition assay is generally used for the primary compound screen. For extremely hydrophobic compounds, prepare compound dilutions in fresh plasma obtained from the same blood donor or in PBS-containing 5% DMSO to enhance solubility.
Add 25 μl test compound dilution or vehicle control and gently mix the sample. Then add 5.0 μl LPS solution (250 ng/ml stocked prepared fresh: 5.0 ng/ml final concentration LPS), and mix again. Incubate the tubes at […] in a water bath for 16-18 hr with occasional mixing. Alternatively, the tubes can be placed in a rotator set at 4 rpm for the same incubation period. This assay should be set up in duplicate or triplicate with the following controls: negative control—no LPS; positive control—no test inhibitor; vehicle control—the highest concentration of DMSO or compound solvent used in the experiment. Additional saline is added to all control tubes to normalize volumes for both control and experimental whole blood test samples.
After the incubation period, whole blood samples are centrifuged for 10 minutes at ^˜2000 rpm in the microfuge, plasma is transferred to a fresh microfuge tube and centrifuged at 1000×g to pellet residual platelets if necessary. Plasma samples may be stored frozen at −70° C. prior to assay for cytokine levels by ELISA.
R & D Systems (614 McKinley Place N.E. Minneapolis, Minn. 55413) Quantikine kits may be used for measurement of IL-1β and TNF-α. The assays are performed according to the manufacture's directions. IL-1β levels of ^˜1-5 ng/ml in positive controls among a range of individuals may be observed. A 1:200 dilution of plasma for all samples is usually sufficient for experiments for ELISA results to fall on the linear range of the ELISA standard curves. It may be necessary to optimize standard dilutions if you observe differences in the whole blood assay. Nerad, J. L. et al., J. Leukocyte Biol., 52, pp. 687-692 (1992).

[4] = substrate Suc-YVAD-pNA 80 μM, 37° C., pH 7.5

Row | Structure (SMILES) | pKi [1] | pKi [1, 4] | pIC50 [3] | pIC50 [2]
1 | CC(=O)Nc1ccc(C(=O)N[C@H](C(=O)N2CCC[C@H]2C(=O)N[C@H](C=O)CC(=O)O)C(C)C)cc1 [Example 5a] (Ac-[4Abz]VPD-aldehyde) | 6.00 to 8.00 | > 8.00 | > 5.60 | < 5.70
2 | COc1ccc(C(=O)N[C@H](C(=O)N2CCC[C@H]2C(=O)N[C@H](C=O)CC(=O)O)C(C)C)cc1OCc1ccccc1 [Example 5aa] | > 8.00 | > 8.00 | > 5.60 | 6.00 to 6.30
3 | COc1ccc2cc([C@H](C)C(=O)N[C@H](C(=O)N3CCC[C@H]3C(=O)N[C@H](C=O)CC(=O)O)C(C)C)ccc2c1 [Example 5ag] | > 8.00 | > 8.00 | 5.12 to 5.60 | 6.00 to 6.30
4 | CC(C)[C@H](NC(=O)c1ccc2c(c1)S(=O)(=O)c1ccccc1C2=O)C(=O)N1CCC[C@H]1C(=O)N[C@H](C=O)CC(=O)O [Example 5ai] | > 8.00 | > 8.00 | < 5.12 | > 6.30
5 | CC(C(=O)N[C@H](C(=O)N1CCC[C@H]1C(=O)N[C@H](C=O)CC(=O)O)C(C)C)c1ccc(C(=O)c2cccs2)cc1 (stereo partly drawn) [Example 5aj] | 6.00 to 8.00 | 6.00 to 8.00 | < 5.12 | 6.00 to 6.30
6 | CC(C)[C@H](NC(=O)c1cccc(Oc2ccccc2)c1)C(=O)N1CCC[C@H]1C(=O)N[C@H](C=O)CC(=O)O [Example 5ay] | – | > 8.00 | 5.12 to 5.60 | 6.00 to 6.30
7 | CC(C)[C@H](NC(=O)c1cccc(C(=O)c2ccccc2)c1)C(=O)N1CCC[C@H]1C(=O)N[C@H](C=O)CC(=O)O [Example 5az] | – | > 8.00 | > 5.60 | 6.00 to 6.30
8 | CC(C)[C@H](NC(=O)c1ccc2c(c1)C(=O)c1ccccc1-2)C(=O)N1CCC[C@H]1C(=O)N[C@H](C=O)CC(=O)O [Example 5bb] | – | > 8.00 | 5.12 to 5.60 | 6.00 to 6.30
9 | CC(C)[C@H](NC(=O)c1ccccc1)C(=O)N1CCC[C@H]1C(=O)N[C@H](C=O)CC(=O)O [Example 5e] (Bz-Val-Pro-Asp-aldehyde) | – | 6.00 to 8.00 | > 5.60 | 6.00 to 6.30
10 | CC(C)[C@H](NC(=O)c1ccc(O)cc1)C(=O)N1CCC[C@H]1C(=O)N[C@H](C=O)CC(=O)O [Example 5f] | – | 6.00 to 8.00 | 5.12 to 5.60 | 5.70 to 6.00
11 | CC(C)[C@H](NC(=O)c1cccc2c1Cc1ccccc1-2)C(=O)N1CCC[C@H]1C(=O)N[C@H](C=O)CC(=O)O [Example 5j] | > 8.00 | > 8.00 | < 5.12 | < 5.70
12 | CC(C)[C@H](NC(=O)c1ccc2c(c1)OCO2)C(=O)N1CCC[C@H]1C(=O)N[C@H](C=O)CC(=O)O [Example 5r] | 6.00 to 8.00 | 6.00 to 8.00 | < 5.12 | < 5.70
13 | CC(C)[C@H](NC(=O)c1cnnc2ccccc12)C(=O)N1CCC[C@H]1C(=O)N[C@H](C=O)CC(=O)O [Example 5s] | 6.00 to 8.00 | 6.00 to 8.00 | < 5.12 | 6.00 to 6.30

Continued, in another order:

Row | pKi [1] | pKi [1, 4] | pIC50 [3] | Structure (SMILES) | pIC50 [2]
14 | 6.00 to 8.00 | 6.00 to 8.00 | 5.12 to 5.60 | CC(C)[C@H](NC(=O)Cc1ccccc1OCc1ccccc1)C(=O)N1CCC[C@H]1C(=O)N[C@H](C=O)CC(=O)O [Example 5ab] | 6.00 to 6.30
15 | > 8.00 | > 8.00 | > 5.60 | COc1c(C)cc(C(=O)N[C@H](C(=O)N2CCC[C@H]2C(=O)N[C@H](C=O)CC(=O)O)C(C)C)cc1C [Example 5ac] | > 6.30
16 | > 8.00 | > 8.00 | > 5.60 | CC(C)[C@H](NC(=O)c1ccc2ncccc2c1)C(=O)N1CCC[C@H]1C(=O)N[C@H](C=O)CC(=O)O [Example 5ad] | > 6.30
17 | 6.00 to 8.00 | 6.00 to 8.00 | < 5.12 | COc1cc(CC(=O)N[C@H](C(=O)N2CCC[C@H]2C(=O)N[C@H](C=O)CC(=O)O)C(C)C)ccc1OCc1ccccc1 [Example 5ak] | 6.00 to 6.30
18 | – | > 8.00 | > 5.60 | CC(C)[C@H](NC(=O)c1cc2ccccc2[nH]1)C(=O)N1CCC[C@H]1C(=O)N[C@H](C=O)CC(=O)O [Example 5b] | 6.00 to 6.30
19 | – | > 8.00 | 5.12 to 5.60 | CC(C)[C@H](NC(=O)c1cccc2ccccc12)C(=O)N1CCC[C@H]1C(=O)N[C@H](C=O)CC(=O)O [Example 5d] | 6.00 to 6.30
20 | > 8.00 | > 8.00 | < 5.12 | CC(C)[C@H](NC(=O)c1cccc2c1-c1ccccc1C2)C(=O)N1CCC[C@H]1C(=O)N[C@H](C=O)CC(=O)O [Example 5i] | 5.70 to 6.00
21 | 6.00 to 8.00 | 6.00 to 8.00 | < 5.12 | CC(C)[C@H](NC(=O)c1ccccc1C(=O)c1ccc(F)cc1)C(=O)N1CCC[C@H]1C(=O)N[C@H](C=O)CC(=O)O [Example 5l] | > 6.30
22 | > 8.00 | > 8.00 | 5.12 to 5.60 | COc1cc(C(=O)N[C@H](C(=O)N2CCC[C@H]2C(=O)N[C@H](C=O)CC(=O)O)C(C)C)cc(OC)c1O [Example 5n] | 6.00 to 6.30

Source: patent US20030232986A1, “Inhibitors of caspases” (Vertex Pharmaceuticals Incorporated, priority 1998, published 2003)
